Test results as given in PMC8406311, “Change in Cofactor Specificity of Oxidoreductases by Adaptive Evolution of an Escherichia coli NADPH-Auxotrophic Strain” (mBio, 2021).
Residue numbers refer to the chain shown, from its start.

Tests used:
Type in all cases: biochemical
[1] = biological target: T1, MaeA (NAD+-dependent malic enzyme) (Escherichia coli, UniProt P26616); test: NAD(P)H formation at […] nm, Michaelis-Menten fit; conditions: 50 mM Tris HCl pH 7.5, 10 mM MgCl2, 30 °C, apparent
T1 construct: N-terminal His-tag (modified pET22b(+)), expressed in E. coli BL21(DE3), HisTrap purified
T1 sequence (P26616 1-565): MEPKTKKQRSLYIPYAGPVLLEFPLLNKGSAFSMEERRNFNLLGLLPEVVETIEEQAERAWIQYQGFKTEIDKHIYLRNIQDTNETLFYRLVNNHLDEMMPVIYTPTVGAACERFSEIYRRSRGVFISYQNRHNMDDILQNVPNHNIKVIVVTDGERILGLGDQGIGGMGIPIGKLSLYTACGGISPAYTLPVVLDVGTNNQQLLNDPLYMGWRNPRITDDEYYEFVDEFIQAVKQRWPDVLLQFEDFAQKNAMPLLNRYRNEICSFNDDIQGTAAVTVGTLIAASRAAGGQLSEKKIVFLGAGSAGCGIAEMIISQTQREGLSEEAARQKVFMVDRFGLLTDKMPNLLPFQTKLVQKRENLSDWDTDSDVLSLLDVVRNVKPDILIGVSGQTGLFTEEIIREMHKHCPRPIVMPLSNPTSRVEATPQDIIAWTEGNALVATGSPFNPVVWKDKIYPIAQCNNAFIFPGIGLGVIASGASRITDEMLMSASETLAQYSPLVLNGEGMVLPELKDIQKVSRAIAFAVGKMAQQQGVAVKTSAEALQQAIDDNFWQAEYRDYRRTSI

[2] = biological target: T2, MaeA (NAD+-dependent malic enzyme) (Escherichia coli, UniProt P26616, L176V/D336N); test: NAD(P)H formation at […] nm, Michaelis-Menten fit; conditions: 50 mM Tris HCl pH 7.5, 10 mM MgCl2, 30 °C; L-malate at 6 to 10 times its KM; apparent
T2 construct: N-terminal His-tag (modified pET22b(+)), expressed in E. coli BL21(DE3), HisTrap purified
T2 sequence (P26616 1-565 L176V/D336N): T1 sequence (P26616 1-565) with L176V, D336N

[3] = biological target: T3, MaeA (NAD+-dependent malic enzyme) (Escherichia coli, UniProt P26616, D336N); test: NAD(P)H formation at […] nm, Michaelis-Menten fit; conditions: 50 mM Tris HCl pH 7.5, 10 mM MgCl2, 30 °C; L-malate at 6 to 10 times its KM; apparent
T3 construct: N-terminal His-tag (modified pET22b(+)), expressed in E. coli BL21(DE3), HisTrap purified
T3 sequence (P26616 1-565 D336N): T1 sequence (P26616 1-565) with D336N

[4] = biological target: T4, MaeA (NAD+-dependent malic enzyme) (Escherichia coli, UniProt P26616, I283N/D336A); test: NAD(P)H formation at […] nm, Michaelis-Menten fit; conditions: 50 mM Tris HCl pH 7.5, 10 mM MgCl2, 30 °C; L-malate at 6 to 10 times its KM; apparent
T4 construct: N-terminal His-tag (modified pET22b(+)), expressed in E. coli BL21(DE3), HisTrap purified
T4 sequence (P26616 1-565 I283N/D336A): T1 sequence (P26616 1-565) with I283N, D336A

[5] = biological target: T5, Lpd (dihydrolipoamide dehydrogenase; lipoamide dehydrogenase) (Escherichia coli, UniProt P0A9P0, E205A); test: NAD(P)H formation at […] nm, nonlinear fit of initial rates; conditions: 100 mM Na phosphate, 100 mM KCl, 8 mM TCEP, pH 7.6, room temperature; 4 mM dihydrolipoamide; apparent
T5 construct: gene lpdA; N-terminal His-tag (modified pET22b(+)), expressed in E. coli BL21(DE3) Codon+, HisTrap and gel filtration

[6] = biological target: T6, Lpd (dihydrolipoamide dehydrogenase; lipoamide dehydrogenase) (Escherichia coli, UniProt P0A9P0, E205G); test: as above; conditions: 100 mM Na phosphate, 100 mM KCl, 8 mM TCEP, pH 7.6, room temperature; 4 mM dihydrolipoamide; apparent
T6 construct: gene lpdA; N-terminal His-tag (modified pET22b(+)), expressed in E. coli BL21(DE3) Codon+, HisTrap and gel filtration

[7] = biological target: T7, Lpd (dihydrolipoamide dehydrogenase; lipoamide dehydrogenase) (Escherichia coli, UniProt P0A9P0); test: as above; conditions: 100 mM Na phosphate, 100 mM KCl, 8 mM TCEP, pH 7.6, room temperature, apparent
T7 construct: gene lpdA; N-terminal His-tag (modified pET22b(+)), expressed in E. coli BL21(DE3) Codon+, HisTrap and gel filtration

[8] = L-malate at 6 to 10 times its KM

T7 sequence (P0A9P0 2-474): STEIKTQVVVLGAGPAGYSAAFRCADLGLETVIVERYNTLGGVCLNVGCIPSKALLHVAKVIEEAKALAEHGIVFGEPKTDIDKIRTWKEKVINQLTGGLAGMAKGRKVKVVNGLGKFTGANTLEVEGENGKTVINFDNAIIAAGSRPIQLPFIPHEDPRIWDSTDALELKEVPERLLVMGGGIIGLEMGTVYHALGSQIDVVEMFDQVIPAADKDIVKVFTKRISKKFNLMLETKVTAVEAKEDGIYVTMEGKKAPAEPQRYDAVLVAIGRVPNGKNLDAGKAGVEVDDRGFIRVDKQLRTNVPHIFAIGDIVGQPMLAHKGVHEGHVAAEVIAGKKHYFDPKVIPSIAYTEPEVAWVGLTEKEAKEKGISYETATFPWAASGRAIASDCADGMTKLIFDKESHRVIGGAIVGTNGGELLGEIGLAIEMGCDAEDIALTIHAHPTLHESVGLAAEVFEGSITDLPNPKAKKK
T6 sequence (P0A9P0 2-474 E205G): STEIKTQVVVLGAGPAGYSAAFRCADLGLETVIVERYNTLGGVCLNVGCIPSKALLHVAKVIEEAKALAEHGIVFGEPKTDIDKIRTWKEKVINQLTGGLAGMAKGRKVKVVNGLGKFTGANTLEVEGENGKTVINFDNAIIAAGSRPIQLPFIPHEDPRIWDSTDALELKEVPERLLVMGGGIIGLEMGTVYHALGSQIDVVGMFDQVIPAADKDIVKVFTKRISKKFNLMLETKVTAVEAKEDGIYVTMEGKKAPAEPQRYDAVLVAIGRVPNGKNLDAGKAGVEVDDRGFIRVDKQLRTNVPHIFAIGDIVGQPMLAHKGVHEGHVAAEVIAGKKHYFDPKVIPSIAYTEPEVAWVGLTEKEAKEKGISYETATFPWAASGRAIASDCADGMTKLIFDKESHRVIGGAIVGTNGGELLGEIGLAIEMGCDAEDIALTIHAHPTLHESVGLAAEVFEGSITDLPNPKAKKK
T5 sequence (P0A9P0 2-474 E205A): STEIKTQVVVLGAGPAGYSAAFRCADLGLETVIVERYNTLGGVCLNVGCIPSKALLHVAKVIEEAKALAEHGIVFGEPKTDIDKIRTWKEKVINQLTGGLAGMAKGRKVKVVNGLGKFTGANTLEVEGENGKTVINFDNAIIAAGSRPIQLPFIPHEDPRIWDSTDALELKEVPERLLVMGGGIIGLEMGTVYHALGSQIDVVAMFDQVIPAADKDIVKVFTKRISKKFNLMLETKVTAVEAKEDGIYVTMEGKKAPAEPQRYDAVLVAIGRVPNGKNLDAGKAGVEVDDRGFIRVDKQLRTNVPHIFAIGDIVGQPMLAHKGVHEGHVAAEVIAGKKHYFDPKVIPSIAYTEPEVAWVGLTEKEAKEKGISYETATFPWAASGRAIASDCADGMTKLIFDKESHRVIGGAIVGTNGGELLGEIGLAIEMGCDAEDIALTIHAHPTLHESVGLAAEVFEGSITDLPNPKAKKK

Compound | Km ([1]; other substrates at 6 to 10 times their KM) [µM] | Km [2] [µM] | Km [3] [µM] | Km [4] [µM] | Km [5] [µM] | Km [6] [µM] | Km [1, 8] [µM] | Km ([7]; 4 mM dihydrolipoamide) [µM] | Km [7] [µM]
O=C(O)C[C@H](O)C(=O)O [L-malate] | 630 ± 40 |  |  |  |  |  |  |  | 
NC(=O)c1ccc[n+]([C@@H]2O[C@H](COP(=O)(O)OP(=O)(O)OC[C@H]3O[C@@H](n4cnc5c(N)ncnc54)[C@H](OP(=O)(O)O)[C@@H]3O)[C@@H](O)[C@H]2O)c1 [NADP^+] |  | 16 ± 1 | 91 ± 10 | 13 | 2480 ± 690 | 3480 ± 1030 | 3600 ± 400 |  | 
NC(=O)c1ccc[n+]([C@@H]2O[C@H](COP(=O)(O)OP(=O)(O)OC[C@H]3O[C@@H](n4cnc5c(N)ncnc54)[C@H](O)[C@@H]3O)[C@@H](O)[C@H]2O)c1 [NAD^+] |  | 270 ± 30 | 1500 ± 200 | 270 ± 30 | 6350 ± 380 | 9490 ± 1820 | 100 ± 20 | 440 ± 60 | 
NC(=O)CCCC[C@@H](S)CCS [dihydrolipoamide] |  |  |  |  |  |  |  |  | 180 ± 20
